Values quoted from earlier work in US20040082013A1, “Methods for screening for substances which inhibit fp prostanoid receptor interaction with a compound having pgf2alpha activity and methods of treating cancer” (priority 2003, published 2004).

Key:
[1] = tested on: eyelashes and adjacent hair; conditions: some patients receiving latanoprost for glaucoma; treated eye, not untreated eye
[2] = tested on: skin carcinogenesis; conditions: animal models of skin carcinogenesis

Compound	hair growth side effect [1]	effect on anti-tumor promoting activity of indomethacin [2]	effect on tumor promoting activity of phorbol esters [2]
CC(C)OC(=O)CCC/C=C\C[C@@H]1[C@@H](CC[C@@H](O)CCc2ccccc2)[C@H](O)C[C@@H]1O [latanoprost]	hypertrichosis of the eyelashes and adjacent hair in the treated eye		
prostaglandin F2α [PGF2α]		reversed the anti-tumor promoting activity of indomethacin	increased the tumor promoting activity of phorbol esters
